The target in assay [1] is T1, SBD(∆CDE)-y of human Hsp70 (Homo sapiens, UniProt P0DMV8, L542Y).
T1 construct: We solved the solution structure of SBD(∆CDE) comprising residues 382–564; His6 (N, cleaved yes); made in house; host or cells: E. coli BL21(DE3)
As to the kind of experiment: Binding kinetics estimated from simulation of NMR exchange. On the procedure:
This gives a kon = 2.3 × 10^4 M^−1 s^−1, which is consistent with the kinetics for the lidless SBD of DnaK in binding to its target peptide (kon = 2 × 10^4 M^−1 s^−1 and koff = 12.5 s^−1).
The NMR titration experiments were performed by acquiring a series of 2D ^1H-^15N HSQC spectra of the protein in 50 mM potassium phosphate (pH 7.0), 50 mM KCl and 10 mM DTT at 310 K (37 °C). The NR-peptide (0.075 mM, 0.15 mM, 0.30 mM, 0.60 mM, 1.2 mM, 3.0 mM and 6.0 mM) was titrated into a sample containing 0.3 mM ^15N labeled SBD(∆CDE)-y. Data processing and analysis were performed with NMRPipe and KUJIRA [41], respectively. The dissociation constant, KD, was estimated by fitting Equation (1) to the bound fraction of SBD(∆CDE)-y, fbound: (1) fbound([L]total)=1−I([L]total)/I0=([P]total+[L]total+KD)−([P]total+[L]total+KD)^2−4[P]total[L]total/2[P]total where [L]total and [P]total are the total concentrations of NR-peptide and SBD(∆CDE)-y, respectively, and I and I0 are the signal intensities with and without NR-peptide. Each signal intensity was measured by a similar procedure described in Section 4.3. […] Uncertainties in the dissociation constant was estimated by Monte Carlo simulations on the basis of the uncertainty for each signal intensity evaluated using the root-mean-square deviation value on a spectral region with no signals, which was obtained by the NMRPipe built-in module.

Assay [2] has as its system SBD in Hsp70 with covalently modified E444. Particulars: PDB ID: 4WV7; ref [29]; cited from earlier work. The text has this:
E444 in Hsp70 is accessible by NBD in the apo-form SBD(∆CDE)-y, whereas it is covered by the Lα,β loop and therefore this interaction is hindered in the substrate-bound form (Figure 7a,b). This is consistent with the observation for Q442 in DnaK, as described above.

Assay [3] concerns the target T2, SBD(∆CDE) (S537C/L542Y) mutant, labelled at residue 537 with MTSL or its diamagnetic analog (human, UniProt P0DMV8 382-564, S537C | L542Y, MTSL nitroxide radical, or the diamagnetic MTSL analog, on C537).
T2 construct: 15N-labelled for NMR; PDB 5XIR is the parent SBD(∆CDE)-y without S537C; also called SBD(∆CDE)-y harboring a S537C mutation; SBD(∆CDE)-y with spin labeling at residue 537; source: E. coli BL21(DE3), purified (as in Section 4.1), then labelled with MTSL; not shown: His6, N-terminal, cleaved
As to the kind of experiment: NMR paramagnetic relaxation enhancement; 2D 1H-15N HSQC of 0.5 mM spin-labelled SBD(∆CDE) (S537C/L542Y) with/without 5.0 mM NR-peptide; 50 mM potassium phosphate pH 7.0, 50 mM KCl, 37 °C. Particulars: both partners purified.

The target of assay [4] is T3, SBD(∆CDE)-y, substrate-binding domain of human Hsp70 (HSPA1A) lacking αC, αD and αE, with the L542Y mutation (human, UniProt P0DMV8 382-564, L542Y).
T3 construct: Cloned in pET16b (NdeI/XhoI); 15N- or 13C/15N-labelled for NMR, unlabelled (LB medium) for ITC; also called mutant SBD; apo-form SBD; source: E. coli BL21(DE3), purified (HisTrap FF, Factor Xa cleavage, HiTrap Q FF); not shown: His6, N-terminal, cleaved
As to the kind of experiment: NMR titration; 2D 1H-15N HSQC; NR-peptide (0.075-6.0 mM) titrated into 0.3 mM 15N-labelled SBD(∆CDE)-y; 50 mM potassium phosphate pH 7.0, 50 mM KCl, 10 mM DTT, 37 °C; slow exchange; global fit of signal intensities of 28 residues. The following applies: both partners purified.

Assay [5] addresses T3, SBD(∆CDE)-y, substrate-binding domain …. As to the kind of experiment: ITC; 1.5 μL injections of 5 mM NR-peptide into 200 μL of 0.1 mM SBD(∆CDE)-y; single-site fit with the stoichiometry fixed as n = 1; triplicate. Particulars: both partners purified. Background: Isothermal titration calorimetry measures the heat released or taken up as one component is titrated into another.

The kon is a measure of how fast the partners come together. As usually defined, the koff is the rate constant with which the complex falls apart. A word on the Kd: it is the concentration at which binding is half-saturated.

T1 sequence (P0DMV8 382-564 L542Y): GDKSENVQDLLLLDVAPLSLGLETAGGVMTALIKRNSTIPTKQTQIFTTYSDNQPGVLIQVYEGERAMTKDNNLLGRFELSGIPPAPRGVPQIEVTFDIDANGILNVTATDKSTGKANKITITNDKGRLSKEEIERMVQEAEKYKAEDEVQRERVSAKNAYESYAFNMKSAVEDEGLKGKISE
T3 sequence (P0DMV8 382-564 L542Y): as above
T2 sequence (P0DMV8 382-564 S537C/L542Y): as the sequence (P0DMV8 382-564 L542Y) above, with S156C counted along it

Consider `CC(C)C[C@H](NC(=O)[C@H](CC(C)C)NC(=O)[C@H](CCCNC(=N)N)NC(=O)[C@@H](N)CC(N)=O)C(=O)N[C@@H](CC(C)C)C(=O)N[C@H](C(=O)NCC(=O)O)[C@@H](C)O` [NR-peptide], for which the kon in assay [1] (from koff 30 s^−1 and KD = 1.3 mM) is 23000 M⁻¹ s⁻¹. The koff in assay [1] (simulation using average R2 rate 21 s^−1 and KD = 1.3 mM, SBD(∆CDE)-y 0.3 mM, peptide 3.0 mM, read-out: maximum koff) was at most 30 s⁻¹.
Take `C=CC1=CC[C@H]2[C@@H](C[C@@H](O)[C@@]3(O)[C@@]4(C)C(=O)O[C@H]4CC[C@]23C)[C@H]1C` [novolactone]: in assay [2], the “effect of covalent E444 modification on interdomain interactions” value is “sterically blocks the interdomain interactions”.

B1: NR-peptide (peptide)
peptide: NRLLLTG
notes: Model client peptide of Hsp70; also called NRLLLTG; client-peptide
For the molecule B1, the binding result in assay [3] is listed as “binds”. Moreover, the Kd in assay [4] came out at 1300 µM; in assay [5] it was 1500 µM.

These data come from PMC6017645, “Substrate Binding Switches the Conformation at the Lynchpin Site in the Substrate-Binding Domain of Human Hsp70 to Enable Allosteric Interdomain Communication” (Molecules : A Journal of Synthetic Chemistry and Natural …, 2018).
